# From patent publication US10034886B2, “GLP-1 receptor modulators” (Celgene International II SÀRL, priority 2014, dated 2018)
# Target: T1, GLP-1R (Homo sapiens, UniProt P43220)
# T1 construct: host or cells: GLP-1R CRE-bla CHO-K1 cells
# Assay: EC20 GLP-1(9-36) PAM cAMP assay: dose response of compound in the presence of fixed concentration of GLP-1(9-36)
# Assay type: cell-based
# Details: EC20 GLP-1(9-36) PAM EC50, dose response of compound in presence of fixed concentration of GLP-1(9-36), GLP-1R CRE-bla CHO-K1 cells
# Method in brief: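 GLP-1R CRE-bla CHO-K1 cells treated 30 min at 37 °C with 12-point compound dose response plus fixed EC20 GLP-1(9-36), with IBMX, in HBSS/HEPES/0.1% BSA pH 7.4. Total cAMP measured by luminescent detection against standard curve; EC50 and Emax from non-linear regression.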
# T1 sequence (P43220 24-463): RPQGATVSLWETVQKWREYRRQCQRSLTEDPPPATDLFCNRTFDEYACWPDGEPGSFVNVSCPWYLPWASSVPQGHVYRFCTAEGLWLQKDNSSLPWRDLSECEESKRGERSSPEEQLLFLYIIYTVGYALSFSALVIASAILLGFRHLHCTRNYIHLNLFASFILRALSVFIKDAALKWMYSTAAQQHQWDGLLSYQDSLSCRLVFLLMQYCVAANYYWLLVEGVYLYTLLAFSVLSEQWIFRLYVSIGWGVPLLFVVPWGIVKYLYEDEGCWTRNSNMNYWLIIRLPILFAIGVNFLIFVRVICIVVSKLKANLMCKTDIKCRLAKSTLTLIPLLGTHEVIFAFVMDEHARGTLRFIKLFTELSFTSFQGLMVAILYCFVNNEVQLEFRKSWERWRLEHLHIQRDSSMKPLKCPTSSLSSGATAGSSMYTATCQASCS
# T1 sequence (P01275 100-127 partner limits assumed): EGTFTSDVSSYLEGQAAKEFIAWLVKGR
row,Compound,EC50 [nM]
1,CCCCCCCOc1ccc(-c2cnc(-c3ccc(C[C@H](NC(=O)c4ccc(C(C)(C)C)s4)C(=O)N4CC[C@H](c5nnn[nH]5)C4)cc3)nc2)cc1 [Compound 886],800 to 2500

# Same assay, conditions: GLP-1R CRE-bla CHO-K1 cells, compound dose response with fixed concentration of GLP-1(9-36), read-out: EC20 GLP-1(9-36) PAM EC50
row,Compound,EC50 [nM]
1,CCCCc1ccc(/C=C/c2cnc(-c3ccc(C[C@H](NC(=O)c4ccc(C(C)(C)C)s4)C(=O)N[C@H](C)C(=O)O)cc3)nc2)cc1 [Compound 1262],800 to 2500
2,COc1ccc(-c2ccc(-c3cnc(-c4ccc(C[C@H](NC(=O)c5ccc(C(C)(C)C)s5)C(=O)N5CC(C(=O)O)C5)cc4)nc3)c(F)c2)cc1 [Compound 1329],< 800
3,CC(C)(C)c1ccc(C(=O)N[C@@H](Cc2ccc(-c3ccc(-n4c5ccccc5c5ccccc54)cc3)cc2)C(=O)O)s1 [Compound 1440],5000 to 10000
4,C[C@@H](NC(=O)[C@H](Cc1ccc(-c2ncc(-c3ccc(-c4ccccc4)c(F)c3)cn2)cc1)NC(=O)c1ccc(C(C)(C)C)s1)C(=O)O [Compound 1289],< 800

# The next lines start with the values.
row,EC50 [nM],Compound
1,800 to 2500,CCOc1ccc(C(=O)N[C@@H](Cc2ccc(-c3ncc(-c4ccc(OCCCC(C)C)cc4)cn3)cc2)C(=O)N2CC(C(=O)O)C2)cc1 [Compound 1230]
2,800 to 2500,CC(C)CCOc1ccc(-c2ccc(-c3cnc(-c4ccc(C[C@H](NC(=O)c5ccc(C(C)(C)C)s5)C(=O)N[C@H](C)C(=O)O)cc4)nc3)cc2)cc1 [Compound 1294]
3,< 800,CCCc1ccc(-c2ccc(-c3cnc(-c4ccc(C[C@H](NC(=O)c5ccc(C(C)(C)C)cc5)C(=O)N5CC(C(=O)O)C5)cc4)nc3)c(F)c2)cc1 [Compound 1399]

# Same assay, conditions: dose response of compound in presence of fixed concentration of GLP-1(9-36), GLP-1R CRE-bla CHO-K1 cells, read-out: EC20 GLP-1(9-36) PAM EC50
row,Compound,EC50 [nM]
1,Cc1cc(-c2cnc(-c3ccc(C[C@H](NC(=O)c4ccc(C(C)(C)C)s4)C(=O)N[C@H](C)C(=O)O)cc3)nc2)ccc1-c1ccccc1 [Compound 1129],800 to 2500
2,C[C@@H](NC(=O)[C@H](Cc1ccc(-c2ncc(-c3cc(OC(F)(F)F)ccc3F)cn2)cc1)NC(=O)c1ccc(C(C)(C)C)s1)C(=O)O [Compound 1026],2500 to 5000
3,Cc1ccc(/C=C/c2cnc(-c3ccc(C[C@H](NC(=O)c4ccc(C(C)(C)C)s4)C(=O)N[C@H](C)C(=O)O)cc3)nc2)cc1 [Compound 1052],2500 to 5000
4,CCCCCCCOc1ccc(-c2cnc(-c3ccc(C[C@H](NC(=O)c4ccc(C(C)(C)C)s4)C(=O)N4CC(C(=O)O)C4)cc3)nc2)nc1 [Compound 1066],800 to 2500
5,CCCCCCCOc1ccc(-c2cnc(-c3ccc(C[C@H](NC(=O)c4ccc(C(C)(C)C)s4)C(=O)NC(C(=O)O)C(O)c4ccc(Cl)c(Cl)c4)cc3)nc2)cc1 (stereo partly drawn) [Compound 905],5000 to 10000
6,C[C@@H](NC(=O)[C@H](Cc1ccc(-c2ncc(-c3ccc([C@H]4CC[C@@H](C(C)(C)C)CC4)cc3)cn2)cc1)NC(=O)c1ccc(C(C)(C)C)s1)C(=O)O [Compound 1144],800 to 2500
7,CCCCCCCOc1ccc(-c2cnc(-c3ccc(C[C@H](NC(=O)c4ccc(CC)cc4)C(=O)N4CC(C(=O)O)C4)cc3)nc2)cc1 [Compound 1108],< 800

# Further lines, results first:
row,EC50 [nM],Compound
1,800 to 2500,CCCCOc1ccc(-c2cnc(-c3ccc(C[C@H](NC(=O)c4ccc(C(C)(C)C)cc4)C(=O)NCCC(=O)O)cc3)nc2)cc1 [Compound 709]
2,< 800,Cc1ccc(-c2ccc(-c3cnc(-c4ccc(C[C@H](NC(=O)c5ccc(C(C)(C)C)s5)C(=O)N[C@H](C)C(=O)O)cc4)nc3)cc2)cc1C [Compound 1138]
3,5000 to 10000,CC(C)(C)COc1ccc(-c2cnc(-c3ccc(C[C@H](NC(=O)c4ccc(C(C)(C)C)cc4)C(=O)NCCC(=O)O)cc3)nc2)cc1 [Compound 680]
4,2500 to 5000,CC(C)Cc1ccc(-c2cnc(-c3ccc(C[C@H](NC(=O)c4ccc(C(C)(C)C)s4)C(=O)N[C@H](C)C(=O)O)cc3)nc2)cc1 [Compound 1021]
5,800 to 2500,CC(C)(C)c1ccc(-c2cnc(-c3ccc(C[C@H](NC(=O)c4ccc(C(C)(C)C)s4)C(=O)N4CC(C(=O)O)C4)cc3)nc2)cc1 [Compound 783]
6,5000 to 10000,CCCCCCCOc1ccc(-c2cnc(-c3ccc(C[C@H](NC(=O)c4ccc(C(C)(C)C)cc4)C(=O)N[C@@H](CC(=O)NCCN(C)C)C(=O)O)cc3)nc2)cc1 [Compound 485]
